Measurements: article PMC9831253, “Sequence-Defined Heteromultivalent Precision Glycomacromolecules Bearing Sulfonated/Sulfated Nonglycosidic Moieties Preferentially Bind Galectin-3 and Delay Wound Healing of a Galectin-3 Positive Tumor Cell Line in an In Vitro Wound Scratch Assay” (Macromolecular bioscience, 2020)

Key:
Gal-3 (galectin-3) [1] = target: T1, Gal-3 (galectin-3) (Homo sapiens, UniProt P17931); assay: ELISA-type inhibition of binding to asialofetuin; details: read-out: Gal-3 IC50 ± SD [× 10^-6M]^a)
T1 construct: gene LGALS3; ELISA by an established protocol of Elling and co-workers
Description: ELISA-type inhibition of binding to asialofetuin on Gal-3 (galectin-3)

Gal-1 (galectin-1) = target: T2, Gal-1 (galectin-1) (Homo sapiens, UniProt P09382); assay: ELISA-type inhibition of binding to asialofetuin; details: read-out: Gal-1 IC50 ± SD [× 10^-6M]^a)
T2 construct: gene LGALS1; ELISA by an established protocol of Elling and co-workers
Description: ELISA-type inhibition of binding to asialofetuin on Gal-1 (galectin-1)

Gal-3 (galectin-3) [2] = target: T1, Gal-3 (galectin-3); assay: ELISA-type inhibition and SPR inhibition; type: biochemical; details: glucose non-binding control; PBS pH 7.5

T1 sequence (P17931 2-250): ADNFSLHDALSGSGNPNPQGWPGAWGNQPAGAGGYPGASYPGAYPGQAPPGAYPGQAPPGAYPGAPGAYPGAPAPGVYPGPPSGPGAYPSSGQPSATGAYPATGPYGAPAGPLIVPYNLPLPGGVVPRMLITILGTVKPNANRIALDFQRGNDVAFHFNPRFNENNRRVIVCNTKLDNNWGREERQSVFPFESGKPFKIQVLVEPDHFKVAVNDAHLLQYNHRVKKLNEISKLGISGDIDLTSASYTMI
T2 sequence (P09382 2-135): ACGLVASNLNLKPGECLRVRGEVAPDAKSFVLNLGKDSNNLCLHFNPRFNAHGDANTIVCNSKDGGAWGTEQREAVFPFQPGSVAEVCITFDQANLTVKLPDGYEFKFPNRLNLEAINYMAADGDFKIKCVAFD

Row | SMILES | IC50 (Gal-3 (galectin-3) [1]) | IC50 (Gal-1 (galectin-1)) | no inhibition (Gal-3 (galectin-3) [2])
1 | CC(=O)NCCOCCOCCNC(=O)CCC(=O)NCCN(CCNC(=O)CCC(N)=O)C(=O)CCc1cn([C@@H]2O[C@H](CO)[C@@H](O[C@@H]3O[C@H](CO)[C@H](O)[C@H](O)[C@H]3O)[C@H](O)[C@H]2O)nn1 [1b, Lac(1)-2-Ac] | 123 ± 3 µM | 296 ± 70 µM | 
2 | CC(=O)NCCOCCOCCNC(=O)CCC(=O)NCCN(CCNC(=O)CCC(=O)NCCN(CCNC(=O)CCC(=O)NCCN(CCNC(=O)CCC(=O)NCCN(CCNC(=O)CCC(=O)NCCN(CCNC(=O)CCC(N)=O)C(=O)CCc1cn(CCO[C@H]2O[C@H](CO)[C@@H](O)[C@H](O)[C@H]2O)nn1)C(=O)CCC(=O)NCc1ccccc1)C(=O)CCc1cn(CCO[C@H]2O[C@H](CO)[C@@H](O)[C@H](O)[C@H]2O)nn1)C(=O)CCC(=O)NCc1ccccc1)C(=O)CCc1cn(CCO[C@H]2O[C@H](CO)[C@@H](O)[C@H](O)[C@H]2O)nn1 [10b, Glc(1,3,5)-Bz(2,4)-6-Ac] |  |  | nonbinding carbohydrate ligand (glucose, 9b-13b), we see no inhibition in both ELISA and SPR
3 | CC(=O)NCCOCCOCCNC(=O)CCC(=O)NCCN(CCNC(=O)CCC(=O)NCCN(CCNC(=O)CCC(=O)NCCN(CCNC(=O)CCC(=O)NCCN(CCNC(=O)CCC(=O)NCCN(CCNC(=O)CCC(N)=O)C(=O)CCc1cn(CCO[C@H]2O[C@H](CO)[C@@H](O)[C@H](O)[C@H]2O)nn1)C(=O)CCC(=O)Nc1ccc(N)cc1)C(=O)CCc1cn(CCO[C@H]2O[C@H](CO)[C@@H](O)[C@H](O)[C@H]2O)nn1)C(=O)CCC(=O)Nc1ccc(N)cc1)C(=O)CCc1cn(CCO[C@H]2O[C@H](CO)[C@@H](O)[C@H](O)[C@H]2O)nn1 [11b, Glc(1,3,5)-pNH2Ph(2,4)-6-Ac] |  |  | nonbinding carbohydrate ligand (glucose, 9b-13b), we see no inhibition in both ELISA and SPR
4 | CC(=O)NCCOCCOCCNC(=O)CCC(=O)NCCN(CCNC(=O)CCC(=O)NCCN(CCNC(=O)CCC(=O)NCCN(CCNC(=O)CCC(=O)NCCN(CCNC(=O)CCC(=O)NCCN(CCNC(=O)CCC(N)=O)C(=O)CCc1cn(CCO[C@H]2O[C@H](CO)[C@@H](O)[C@H](O)[C@H]2O)nn1)C(=O)CCC(=O)Nc1ccc(S(=O)(=O)O)cc1)C(=O)CCc1cn(CCO[C@H]2O[C@H](CO)[C@@H](O)[C@H](O)[C@H]2O)nn1)C(=O)CCC(=O)Nc1ccc(S(=O)(=O)O)cc1)C(=O)CCc1cn(CCO[C@H]2O[C@H](CO)[C@@H](O)[C@H](O)[C@H]2O)nn1 [12b, Glc(1,3,5)-pSO3H Ph(2,4)-6-Ac] |  |  | nonbinding carbohydrate ligand (glucose, 9b-13b), we see no inhibition in both ELISA and SPR
